Reference: patent US20230203045A1, “INHIBITORS OF NEK7 KINASE” (Halia Therapeutics, Inc., priority 2020, published 2023)

What follows are compounds tested against T1, full-length recombinant human NEK7 (Homo sapiens, UniProt Q8TDX7) (assay: NEK7 Enzymatic Assay). Details: casein substrate, [33P]-ATP, 2 hours at room temperature.
T1 construct: full-length recombinant human NEK7; GST (N); purchased SignalChem Nab 09-10G; host or cells: Sf9 insect cells (baculovirus)
Type: biochemical
Method: Casein substrate (from bovine milk, hydrolyzed and partially dephosphorylated mixture of α, β and κ caseins, obtained from Sigma Aldrich, catalogue #C4765, diluted in distilled water to a final concentration of 1 mg/mL) and full-length recombinant human NEK7 (expressed by baculovirus in Sf9 insect cells using a N-terminal GST tag, obtained from SignalChem, catalogue #Nab 09-10G, 0.1 μg/μL) were mixed in assay buffer (20 mM Hepes pH 7.5, 10 mM MgCl2, 1 mM EGTA, 0.02% Brij35, 0.02 mg/ml BSA, 0.1 mM Na3VO4, 2 mM DTT, 1% DMSO). Compounds of interest (serial 3-fold dilution in DMSO from 10 μM to 0.5 nM) or vehicle (1% DMSO) were dispensed into the kinase reaction mixture by Acoustic technology (Echo550; nanoliter range). After incubation at room temperature for 20 minutes, the kinase reaction was initiated by addition of [^33P]-ATP (specific activity 10 μCi/μl) and the mixture was incubated at room temperature for 2 hours. The reaction was then stopped by spotting the reaction mixture on strips of phosphocellulose P81 paper. Following washing, the radioactivity of the P81 paper was measured and kinase activity data were expressed as the percent remaining kinase activity in test samples compared to vehicle reactions. IC50 values and curve fits were obtained using Prism (GraphPad Software).

T1 sequence (Q8TDX7 whole entry): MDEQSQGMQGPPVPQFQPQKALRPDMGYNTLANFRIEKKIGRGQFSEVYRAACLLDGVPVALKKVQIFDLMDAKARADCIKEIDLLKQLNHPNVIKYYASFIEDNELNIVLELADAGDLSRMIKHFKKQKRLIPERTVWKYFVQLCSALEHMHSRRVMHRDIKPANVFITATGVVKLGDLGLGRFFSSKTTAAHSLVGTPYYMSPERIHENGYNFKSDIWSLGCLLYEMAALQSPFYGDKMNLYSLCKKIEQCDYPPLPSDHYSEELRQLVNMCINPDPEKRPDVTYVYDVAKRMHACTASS

Row | Compound | IC50 [nM]
1 | CC(C)n1nc(-c2ccc(NC(=O)Nc3cc(C(C)(C)C)no3)c(Cl)c2)c2c(N)ncnc21 [Example 6, 1-(4-(4-amino-1-isopropyl-1H-pyrazolo[3,4-d]pyrimidin-3-yl)-2-chlorophenyl)-3-(3-(tert-butyl)isoxazol-5-yl)urea] | > 501
2 | CC(C)(C)c1cc(NC(=O)Nc2ccc(-c3nn(C4CC(F)(F)C4)c4ncnc(N)c34)cc2F)on1 [Example 16, 1-(4-(4-amino-1-(3,3-difluorocyclobutyl)-1H-pyrazolo[3,4-d]pyrimidin-3-yl)-2-fluorophenyl)-3-(3-(tert-butyl)isoxazol-5-yl)urea] | > 501
3 | CC(C)(F)c1cc(NC(=O)Nc2ccc(-c3nn(C4CC4)c4ncnc(N)c34)cc2F)on1 [Example 27, 1-(4-(4-amino-1-cyclopropyl-1H-pyrazolo[3,4-d]pyrimidin-3-yl)-2-fluorophenyl)-3-(3-(2-fluoropropan-2-yl)isoxazol-5-yl)urea] | > 501
4 | Cn1nc(-c2ccc(NC(=O)Nc3cc(C(C)(C)C)no3)c(Cl)c2)c2c(N)ncnc21 [Example 28, 1-(4-(4-amino-1-methyl-1H-pyrazolo[3,4-d]pyrimidin-3-yl)-2-chlorophenyl)-3-(3-(tert-butyl)isoxazol-5-yl)urea] | > 501
5 | CC(C)(C)c1cc(NC(=O)Nc2ccc(-c3nn(C4CC4)c4ccnc(N)c34)cc2)on1 [Example 31, 1-(4-(4-amino-1-cyclopropyl-1H-pyrazolo[4,3-c]pyridin-3-yl)phenyl)-3-(3-(tert-butyl)isoxazol-5-yl)urea] | > 501
6 | CC(C)(C)c1csc(NC(=O)Nc2ccc(-c3nn(C4CC4)c4ncnc(N)c34)cc2F)n1 [Example 34, 1-(4-(4-amino-1-cyclopropyl-1H-pyrazolo[3,4-d]pyrimidin-3-yl)-2-fluorophenyl)-3-(4-(tert-butyl)thiazol-2-yl)urea] | > 501
7 | CC(C)(C)c1cc(NC(=O)Nc2ccc(-c3nn(C4CC4)c4ncnc(N)c34)cc2F)sn1 [Example 35, 1-(4-(4-amino-1-cyclopropyl-1H-pyrazolo[3,4-d]pyrimidin-3-yl)-2-fluorophenyl)-3-(3-(tert-butyl)isothiazol-5-yl)urea] | > 501
8 | CC(C)(C)c1nnc(NC(=O)Nc2ccc(-c3nn(C4CC4)c4ncnc(N)c34)cc2F)o1 [Example 36, 1-(4-(4-amino-1-cyclopropyl-1H-pyrazolo[3,4-d]pyrimidin-3-yl)-2-fluorophenyl)-3-(5-(tert-butyl)-1,3,4-oxadiazol-2-yl)urea] | > 501
9 | CC(C)(C)c1nsc(NC(=O)Nc2ccc(-c3nn(C4CC4)c4ncnc(N)c34)cc2F)n1 [Example 37, 1-(4-(4-amino-1-cyclopropyl-1H-pyrazolo[3,4-d]pyrimidin-3-yl)-2-fluorophenyl)-3-(3-(tert-butyl)-1,2,4-thiadiazol-5-yl)urea] | > 501
10 | CC(C)(C)n1cnc(NC(=O)Nc2ccc(-c3nn(C4CC4)c4ncnc(N)c34)cc2F)n1 [Example 38, 1-(4-(4-amino-1-cyclopropyl-1H-pyrazolo[3,4-d]pyrimidin-3-yl)-2-fluorophenyl)-3-(1-(tert-butyl)-1H-1,2,4-triazol-3-yl)urea] | > 501
11 | CCC(CC)c1cc(NC(=O)Nc2ccc(-c3nn(C4CC4)c4ncnc(N)c34)cc2F)on1 [Example 40, 1-(4-(4-amino-1-cyclopropyl-1H-pyrazolo[3,4-d]pyrimidin-3-yl)-2-fluorophenyl)-3-(3-(pentan-3-yl)isoxazol-5-yl)urea] | 301 to 500
12 | CC(C)c1cc(NC(=O)Nc2ccc(-c3nn(C4CC4)c4ncnc(N)c34)cc2F)on1 [Example 41, 1-(4-(4-amino-1-cyclopropyl-1H-pyrazolo[3,4-d]pyrimidin-3-yl)-2-fluorophenyl)-3-(3-isopropylisoxazol-5-yl)urea] | < 150
13 | CCc1cc(NC(=O)Nc2ccc(-c3nn(C4CC4)c4ncnc(N)c34)cc2F)on1 [Example 42, 1-(4-(4-amino-1-cyclopropyl-1H-pyrazolo[3,4-d]pyrimidin-3-yl)-2-fluorophenyl)-3-(3-ethylisoxazol-5-yl)urea] | 151 to 300
14 | Nc1ncnc2c1c(-c1ccc(NC(=O)Nc3cc(C4(C(F)(F)F)CC4)no3)c(F)c1)nn2C1CC(O)C1 (stereo not shown) [Example 46, 1-(4-(4-amino-1-(3-hydroxycyclobutyl)-1H-pyrazolo[3,4-d]pyrimidin-3-yl)-2-fluorophenyl)-3-(3-(1-(trifluoromethyl)cyclopropyl)isoxazol-5-yl)urea] | < 150
15 | CN1CC(n2nc(-c3ccc(NC(=O)Nc4cc(C5(C(F)(F)F)CC5)no4)c(F)c3)c3c(N)ncnc32)C1 [Example 49, 1-(4-(4-amino-1-(1-methylazetidin-3-yl)-1H-pyrazolo[3,4-d]pyrimidin-3-yl)-2-fluorophenyl)-3-(3-(1-(trifluoromethyl)cyclopropyl)isoxazol-5-yl)urea] | > 501
16 | Nc1ncnc2c1c(-c1cc(F)c(NC(=O)Nc3cc(C4(C(F)(F)F)CC4)no3)cc1F)nn2C1CC1 [Example 50, 1-(4-(4-amino-1-cyclopropyl-1H-pyrazolo[3,4-d]pyrimidin-3-yl)-2,5-difluorophenyl)-3-(3-(1-(trifluoromethyl)cyclopropyl)isoxazol-5-yl)urea] | 301 to 500
17 | CC(C)(C#N)c1cc(NC(=O)Nc2ccc(-c3nn(C4CC4)c4ncnc(N)c34)cc2F)on1 [Example 52, 1-(4-(4-amino-1-cyclopropyl-1H-pyrazolo[3,4-d]pyrimidin-3-yl)-2-fluorophenyl)-3-(3-(2-cyanopropan-2-yl)isoxazol-5-yl)urea] | < 150
18 | Nc1ncnc2c1c(-c1ccc(NC(=O)Nc3cc(CO)no3)c(F)c1)nn2C1CC1 [Example 53, 1-(4-(4-amino-1-cyclopropyl-1H-pyrazolo[3,4-d]pyrimidin-3-yl)-2-fluorophenyl)-3-(3-(hydroxymethyl)isoxazol-5-yl)urea] | > 501
19 | Nc1nccc2c1c(-c1ccc(NC(=O)Nc3cc(C4(C(F)(F)F)CC4)no3)nc1)nn2C1CC1 [Example 54, 1-(5-(4-amino-1-cyclopropyl-1H-pyrazolo[4,3-c]pyridin-3-yl)pyridin-2-yl)-3-(3-(1-(trifluoromethyl)cyclopropyl)isoxazol-5-yl)urea] | 151 to 300
20 | Nc1ncnc2c1c(-c1ccc(NC(=O)Nc3cc(C4(C(F)(F)F)CC4)no3)c(F)c1)nn2CCO [Example 55, 1-(4-(4-amino-1-(2-hydroxyethyl)-1H-pyrazolo[3,4-d]pyrimidin-3-yl)-2-fluorophenyl)-3-(3-(1-(trifluoromethyl)cyclopropyl)isoxazol-5-yl)urea] | < 150
21 | COCCn1nc(-c2ccc(NC(=O)Nc3cc(C4(C(F)(F)F)CC4)no3)c(F)c2)c2c(N)ncnc21 [Example 57, 1-(4-(4-amino-1-(2-methoxyethyl)-1H-pyrazolo[3,4-d]pyrimidin-3-yl)-2-fluorophenyl)-3-(3-(1-(trifluoromethyl)cyclopropyl)isoxazol-5-yl)urea] | 151 to 300
22 | COCCn1nc(-c2ccc(NC(=O)Nc3cc(C4(C(F)(F)F)CC4)on3)c(F)c2)c2c(N)ncnc21 [Example 58, 1-(4-(4-amino-1-(2-methoxyethyl)-1H-pyrazolo[3,4-d]pyrimidin-3-yl)-2-fluorophenyl)-3-(5-(1-(trifluoromethyl)cyclopropyl)isoxazol-3-yl)urea] | 151 to 300
23 | Cc1cc(-c2nn(C3CC3)c3ncnc(N)c23)ccc1NC(=O)Nc1cc(C2(C(F)(F)F)CC2)on1 [Example 59, 1-(4-(4-amino-1-cyclopropyl-1H-pyrazolo[3,4-d]pyrimidin-3-yl)-2-methylphenyl)-3-(5-(1-(trifluoromethyl)cyclopropyl)isoxazol-3-yl)urea] | > 501
24 | Nc1ncnc2c1c(-c1ccc(NC(=O)Nc3cc(C4(C(F)(F)F)CC4)on3)c(F)c1)nn2C1CC(O)C1 (stereo not shown) [Example 60, 1-(4-(4-amino-1-(3-hydroxycyclobutyl)-1H-pyrazolo[3,4-d]pyrimidin-3-yl)-2-fluorophenyl)-3-(5-(1-(trifluoromethyl)cyclopropyl)isoxazol-3-yl)urea] | < 150
25 | Nc1nccc2c1c(-c1ccc(NC(=O)Nc3cc(C4(C(F)(F)F)CC4)on3)c(F)c1)nn2C1CC1 [Example 61, 1-(4-(4-amino-1-cyclopropyl-1H-pyrazolo[4,3-c]pyridin-3-yl)-2-fluorophenyl)-3-(5-(1-(trifluoromethyl)cyclopropyl)isoxazol-3-yl)urea] | > 501
26 | Nc1ncnc2c1c(-c1cc(F)c(NC(=O)Nc3cc(C4(C(F)(F)F)CC4)on3)cc1F)nn2C1CC1 [Example 62, 1-(4-(4-amino-1-cyclopropyl-1H-pyrazolo[3,4-d]pyrimidin-3-yl)-2,5-difluorophenyl)-3-(5-(1-(trifluoromethyl)cyclopropyl)isoxazol-3-yl)urea] | 301 to 500
27 | Nc1ncnc2c1c(-c1ccc(NC(=O)Nc3cc(C4(C(F)(F)F)CC4)on3)c(CO)c1)nn2C1CC1 [Example 63, 1-(4-(4-amino-1-cyclopropyl-1H-pyrazolo[3,4-d]pyrimidin-3-yl)-2-(hydroxymethyl)phenyl)-3-(5-(1-(trifluoromethyl)cyclopropyl)isoxazol-3-yl)urea] | > 501
28 | Nc1ncnc2c1c(-c1ccc(NC(=O)Nc3cc(C4(C(F)(F)F)CC4)on3)nc1)nn2C1CC1 [Example 64, 1-(5-(4-amino-1-cyclopropyl-1H-pyrazolo[3,4-d]pyrimidin-3-yl)pyridin-2-yl)-3-(5-(1-(trifluoromethyl)cyclopropyl)isoxazol-3-yl)urea] | 151 to 300
